pIC50, pKi: −log10 of the molar value.
Key:
GSK-3β (AA 1-420) = GSK-3β (AA 1-420) (Homo sapiens (Human), UniProt P49841); test: GSK-3 inhibition assay (standard coupled enzyme system); format: biochemical; settings: 20 μM ATP, 300 μM peptide, 20 nM GSK-3β, 30° C.
Experimental: Compounds of the present invention were screened for their ability to inhibit GSK-3β (AA 1-420) activity using a standard coupled enzyme system (Fox et al., Protein Sci. 1998, 7, 2249). Reactions were carried out in a solution containing 100 mM HEPES (pH 7.5), 10 mM MgCl2, 25 mM NaCl, 300 μM NADH, 1 mM DTT and 1.5% DMSO. Final substrate concentrations in the assay were 20 μM ATP (Sigma Chemicals, St Louis, Mo.) and 300 μM peptide (American Peptide, Sunnyvale, Calif.). Reactions were carried out at 30° C. and 20 nM GSK-3β. Final concentrations of the components of the coupled enzyme system were 2.5 mM phosphoenolpyruvate, 300 μM NADH, 30 μg/ml pyruvate kinase and 10 μg/ml lactate dehydrogenase.
An assay stock buffer solution was prepared containing all of the reagents listed above with the exception of ATP and the test compound of the present invention. The assay stock buffer solution (175 μl) was incubated in a 96 well plate with 5 μl of the test compound of the present invention at final concentrations spanning 0.002 μM to 30 μM at 30° C. for 10 min. Typically, a 12-point titration was conducted by preparing serial dilutions (from 10 mM compound stocks) with DMSO of the test compounds of the present invention in daughter plates. The reaction was initiated by the addition of 20 μl of ATP (final concentration 20 μM). Rates of reaction were obtained using a Molecular Devices Spectramax plate reader (Sunnyvale, Calif.) over 10 min at 30° C. The Ki values were determined from the rate data as a function of inhibitor concentration.

GSK3α TYR 279 = GSK3α TYR 279 (Homo sapiens (Human), UniProt P49840); test: GSK-3α p-TYR inhibition assay (western blotting of Jurkat cells); format: cell-based; settings: compound incubated o/n, western blot, read-out: GSK3a pTYR 279: IC50
Chain of GSK3α TYR 279 (P49840 whole entry): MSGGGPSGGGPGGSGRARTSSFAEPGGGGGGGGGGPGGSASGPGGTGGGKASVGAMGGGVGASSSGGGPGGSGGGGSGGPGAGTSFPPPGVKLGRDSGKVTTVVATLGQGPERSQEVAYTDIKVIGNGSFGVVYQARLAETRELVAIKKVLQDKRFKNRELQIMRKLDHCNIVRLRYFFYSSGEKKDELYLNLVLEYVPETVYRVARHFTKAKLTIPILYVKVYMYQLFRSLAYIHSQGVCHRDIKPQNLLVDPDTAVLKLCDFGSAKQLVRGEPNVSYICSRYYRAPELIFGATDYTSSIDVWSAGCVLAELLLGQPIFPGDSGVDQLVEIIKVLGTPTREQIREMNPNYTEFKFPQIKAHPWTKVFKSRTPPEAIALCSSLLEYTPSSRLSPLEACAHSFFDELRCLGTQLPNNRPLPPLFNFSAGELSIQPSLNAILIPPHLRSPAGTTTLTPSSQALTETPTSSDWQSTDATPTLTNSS
Experimental: (§1) Compounds are screened for their ability to inhibit the phosphorylation of tyrosine (TYR) residues through the use of western blotting of Jurkat cells dosed with the compounds. The phosphorylation of the specific TYR residues tested are GSK3α TYR 279 and GSK3β TYR 216.
(§2) Jurkat cells are seeded at a density of 2×10^5 cells/well in a 12 well dish in starvation media (RPMI+1% FBS+P/S). Following starvation for 16 hours, the compound is dosed into each well at a final DMSO concentration of 0.3% and cells are incubated o/n at 37° C. 5% CO2. The next day, cells are spun down at 1500 rpm, washed with PBS, and lysed in 100 uL Laemli sample buffer with β-mercaptoethanol.
(§3) 15 microliters (uL) of cell lysates are loaded onto a 10% tris-glycine gel and run at 120 v for 2 hours or until dye front runs off of the gel. The protein is then transferred onto a PVDF membrane at 100 v for 60 min. PBST (PBS containing 0.1% Tween 20, such as 1 ml Tween per 1 L of PBS) is then made up and used for all washes and antibody incubations. The blot is blocked in 5% nonfat milk PBST for one hour.
(§4) The primary antibody (GSK-3α/β pTYR 279/216 at 1:1000 dilution Upstate cat #05-413) is then added in 5%-nonfat milk PBST overnight at 4° C. with gentle rocking. The blot is then washed in PBST for 5 min. This is then repeated 4 times. A secondary anti-mouse-HRP conjugated antibody (1:5000 dilution) is added for 60 min in 5% milk PBST. The blot is then washed in PBST for 5 min. This is also repeated 4 times. 3.0 mL of the developing solution (ECL plus Western Blotting Detection System from Amersham/GE cat # RPN2132) is made and then added. The solution is swirled over the blot for ˜30 sec. The blot is then developed using CL-Xposure clear blue X-ray film. GAPDH expression level is used as a loading control, (GAPDH antibody: santa cruz 25-778) at 1:10000 dilution.
(§5) For determination of GSK-3α and GSK-3β pTYR IC50, the density of the respective bands for each protein at specific compound concentration is compared to a no compound DMSO treated control cell sample present on each exposure.

GSK3β TYR 216 = GSK3β TYR 216 (Homo sapiens (Human), UniProt P49841); test: GSK3β p-TYR inhibition assay (western blotting of Jurkat cells); format: cell-based; settings: compound incubated o/n, western blot, read-out: GSK3b pTYR 216: IC50
Chain of GSK3β TYR 216 (P49841 whole entry): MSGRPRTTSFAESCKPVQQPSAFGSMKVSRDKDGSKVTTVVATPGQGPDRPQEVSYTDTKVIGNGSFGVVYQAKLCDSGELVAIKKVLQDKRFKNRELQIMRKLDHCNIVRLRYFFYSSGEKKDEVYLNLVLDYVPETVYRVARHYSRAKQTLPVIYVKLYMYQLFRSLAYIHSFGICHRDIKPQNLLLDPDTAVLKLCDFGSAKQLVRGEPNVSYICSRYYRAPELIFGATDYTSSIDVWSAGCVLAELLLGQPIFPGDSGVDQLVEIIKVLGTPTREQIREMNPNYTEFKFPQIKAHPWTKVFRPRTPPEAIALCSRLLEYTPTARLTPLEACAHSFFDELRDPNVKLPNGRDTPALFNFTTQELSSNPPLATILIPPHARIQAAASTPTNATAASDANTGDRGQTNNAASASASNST
Experimental: as §1, §2, §3, §4, §5

[1] = system: β-catenin dependent TCF/LEF transcriptional activity; test: β-catenin stabilization protocol (β-lactamase reporter assay in Jurkat cells); format: cell-based; settings: Homo sapiens, 460/530 ratio, 50% of the maximum effect, read-out: Beta Catenin IC50
From the text: GSK-3 phosphorylation of β-catenin targets it to the proteosome for degradation. Inhibition of GSK-3 results in accumulation of β-catenin in the cytosol of cells which through interaction with the transcription factor TCF/LEF translocates to the nucleus and drives the transcription of Wnt-dependent genes. The assay is designed to determine the level of β-catenin dependent TCF/LEF transcriptional activity in a quantitative manner through the use of a β-lactamase reporter assay in Jurkat cells dosed with a compound.
Jurkat β-catenin cells are starved overnight in assay media (1% FBS, 1× Penstrep, RPMI) in the flask. The next day Jurkat β-catenin cells are seeded in 96 well flat bottom plates at a density of 50,000 cells/well in assay media in a volume of 100 ul. The compound is added to the well at a final DMSO concentration of 0.75% and incubated at 37° C. o/n. The next day, 20 uL of 6× CCF4 dye is added to the wells and incubated at room temperature for 1-2 hours. Plates are read on the Cytofluor 4000 series multiwell plate reader and the 460/530 ratio is determined.

[2] = system: infarct size in rat brains; settings: after transient MCAO in rats; cited from earlier work
amyloid-β peptides = settings: mice over-expressing APP, treated over a three-week period; cited from earlier work

Chain of GSK-3β (AA 1-420) (P49841 whole entry, species assumed, the tested form may be a part): as the sequence (P49841 whole entry) above

`Cc1cc(Nc2n[nH]c3ncc(F)cc23)nc(C2CC2)n1` [Compound I-20] showed a pKi (GSK-3β (AA 1-420)) of 6.30 to 7.60.

For `Cc1cc(Nc2n[nH]c3ccc(F)cc23)nc(C2CCOCC2)n1` [Compound I-15], the pIC50 (GSK3α TYR 279) was 7.52, the pKi (GSK-3β (AA 1-420)) was 6.30 to 7.60 and the pIC50 (GSK3β TYR 216) was 6.70. The pIC50 [1] was 5.32.

For “IGF-1: insulin growth factor-1, a known GSK-3 inhibitor”, the “infarct size in rat brains” value [2] is listed as “reduced infarct size”.

With `Cc1nc(C2CCOCC2)nc(Nc2n[nH]c3ncc(F)cc23)c1C` [Compound I-5] the pIC50 (GSK3α TYR 279) was 7.52, the pIC50 (GSK3β TYR 216) was 6.10 and the pIC50 [1] was under 5.00.

Work on `Fc1cnc2[nH]nc(Nc3cc(Cl)nc(C4CCCCC4)n3)c2c1` [Compound I-1] yielded a pKi (GSK-3β (AA 1-420)) of over 7.60.

Work on `Cc1nc(Nc2n[nH]c3ncc(F)cc23)cc(C2CCC(F)(F)CC2)n1` [Compound I-4] yielded a pIC50 (GSK3α TYR 279) of 9.00, a pKi (GSK-3β (AA 1-420)) of over 7.60 and a pIC50 (GSK3β TYR 216) of 7.70. For the same molecule, the pIC50 [1] was 6.68.

With `Cc1cc(Nc2n[nH]c3ccc(F)cc23)nc(C2CCCC2)n1` [Compound I-14] the pKi (GSK-3β (AA 1-420)) was over 7.60.

In the case of `[Li]` [lithium], the “decrease in amyloid-β peptide tissue levels” value (amyloid-β peptides) is listed as over 50%.

Work on `Cc1cc(Nc2n[nH]c3ccc(F)cc23)nc(C2CCCCC2)n1` [Compound I-23] yielded a pIC50 (GSK3α TYR 279) of 8.70, a pIC50 (GSK3β TYR 216) of 7.60 and a pIC50 [1] of 5.96.

With `Cc1cc(Nc2n[nH]c3ncc(F)cc23)nc(C2CCCCCC2)n1` [Compound I-8] the pIC50 (GSK3α TYR 279) was 9.52, the pIC50 (GSK3β TYR 216) was 8.00 and the pIC50 [1] was 6.22.

In the case of `Cc1cc(Nc2n[nH]c3ncc(F)cc23)nc(C2CCCCC2)n1` [Compound I-10], the pIC50 (GSK3α TYR 279) was 9.30, the pIC50 (GSK3β TYR 216) was 8.22 and the pIC50 [1] was 6.40.

For `Cc1cc(Nc2n[nH]c3ncc(F)cc23)nc(C2CCCC2)n1` [Compound I-9], the pIC50 (GSK3α TYR 279) was 8.70, the pIC50 (GSK3β TYR 216) was 7.32 and the pIC50 [1] was 5.85.

For `Cc1cc(Nc2n[nH]c3ncc(F)cc23)nc(C2CCOCC2)n1` [Compound I-17], the pIC50 (GSK3α TYR 279) was 8.52, the pIC50 (GSK3β TYR 216) was 7.52 and the pIC50 [1] was 6.96.

`CN1CCN(c2cc(Nc3n[nH]c4ccc(F)cc34)nc(C3CCCCC3)n2)CC1` [Compound I-2] gave a pKi (GSK-3β (AA 1-420)) of 6.30 to 7.60.

For `CC(C)(O)c1cc(Nc2n[nH]c3ncc(F)cc23)nc(C2CCCCC2)n1` [Compound I-21], the pIC50 (GSK3α TYR 279) was 8.52, the pIC50 (GSK3β TYR 216) was 7.70 and the pIC50 [1] was 6.00.

Work on `Cc1cc(Nc2n[nH]c3ncc(F)cc23)nc([C@H]2CCCC[C@@H]2C)n1` [Compound I-18] yielded a pIC50 (GSK3α TYR 279) of 9.00, a pIC50 (GSK3β TYR 216) of 6.52 and a pIC50 [1] of 5.62.

With `Cc1nc(C2CCCCC2)nc(Nc2n[nH]c3ncc(F)cc23)c1C` [Compound I-3] the pIC50 (GSK3α TYR 279) was 9.15, the pKi (GSK-3β (AA 1-420)) was over 7.60 and the pIC50 (GSK3β TYR 216) was 7.89. For the same molecule, the pIC50 [1] was 5.43.
